Reference: patent publication US5578570A, “Method of treating septic shock using thymosin β4” (The George Washington University Medical Center, priority 1994, dated 1996)

Assays:
Assay type in all cases: in vivo
endotoxic mice = assay: Survival of Swiss Webster mice following lethal endotoxin dose and Tβ4
Experimental: Swiss-Webster mice 4-6 weeks of age (20-25 g) were housed 6 per cage. The mice were divided into 2 groups: endotoxic mice (endotoxin 60 mg/kg i.p. in acute treatment) and endotoxic mice treated with Tβ4, 5 minutes and 2, 4, 6, 8, 10, 12, 14, 16, 18, 20, 22, 24 hours post administration of the endotoxin. Survival was recorded 2 times a day for 7 days.
Swiss-Webster mice 4-6 weeks of age (20-25 g) were divided into groups as follows.
1. Mice treated with a lethal dose of endotoxin (60 mg/kg).
2. […]
3. […]
4. […]

T × β2 [1] = assay: T×β2 levels in a septic shock model in rat; details: rats with septic shock + Tβ4 1 mg/rat × 3
Source text: (§1) Using a septic shock model in rats (Sprague-Dawley, male, 200-225 g each), the effect of thymosin β4 alone and together with antibiotics was studied. Peritonitis was induced in rats in the following way. A 1-cm incision was made into the peritoneal which exposed the cecum. A tight ligature was placed around the cecum with 4-0 suture distal to the insertion of the small bowel, forming an area of devitalized tissue while maintaining bowel continuity. A puncture wound was made with 16-gauge needle into the anti-mesenteric surface of the cecum and a small amount of fecal contents was expressed through the wound. The cecum was replaced into the peritoneal cavity, and the anterior peritoneal wall and skin were closed with surgical staples. Each animal was given a bolus of normal saline (15 ml/kg) for hydration and allowed to recover overnight.
(§2) The results presented in Tables XV to XVIII below show effects of Tβ4 respectively on rat cytokine levels, blood malonyldialdehyde levels, glutathione levels and arachidonic acid metabolic levels.

glutathione = assay: Glutathione levels in a rat septic shock model; details: for RBC GSH: rats with septic shock + 1 mg/rat × 3
Source text: as §1, §2

malonyldialdehyde = assay: Lipid peroxidation (blood malonyldialdehyde) in a septic shock model in rat; details: for Blood Levels of malonyldialdehyde: rats with septic shock + Tβ4 1 mg/rat × 3
Source text: as §1, §2

TNFα = TNFα levels in a septic shock model in rat; details: rats with septic shock + Tβ4 1 mg/rat × 3
Source text: as §1, §2

IL-1α = assay: Serum IL-1α levels in mice treated with lethal dose of endotoxin; details: Table V; pretreatment (SOD 3.3 × 10^4 μ/kg, 30 minutes before endotoxin; Tβ4 100 μg/mice); blood collected 1 hr after endotoxin
Source text: The results presented in Tables III-V below show effects of Tβ4 respectively on mice cerebellar cGMP levels, blood serum TNF-α levels, and blood serum TNF-α and IL-1α levels.
(§3) Using the same methods and materials as in examples 1-3, the effect which Tβ4 has on blood levels of IL-1α, TNF-α, PAG, Txβ2 and 6-keto-PGF1 α, which are pathological mediators of endotoxin induced lethality, was studied.

T × β2 [2] = assay: T×β2 plasma levels in mice after lethal dose of endotoxin; details: Table X, endotoxin 60 mg/kg + Tβ4 100 μg administered simultaneously
Source text: as §3

[3] = during sepsis, with Tβ4 administration

Thymosin β4 [Tβ4]
Survival (No. mice alive) (endotoxic mice; Table VI, endotoxin 60 mg/kg + Tβ4 100 μg 3x, 2, 4 and 6 hrs after endotoxin, 24 hrs, 8 mice at 0 hrs): 7 | Survival (No. mice alive) (endotoxic mice; Table VI, endotoxin 60 mg/kg + Tβ4 100 μg 3x, 2, 4 and 6 hrs after endotoxin, 48 hrs, 8 mice at 0 hrs): 4 | Survival (No. mice alive) (endotoxic mice; Table VI, endotoxin 60 mg/kg + Tβ4 100 μg 3x, 2, 4 and 6 hrs after endotoxin, 72 hrs, 8 mice at 0 hrs): 4 | Survival (No. mice alive) (endotoxic mice; Table VI, endotoxin 60 mg/kg + Tβ4 100 μg 3x, 2, 4 and 6 hrs after endotoxin, 96 hrs, 8 mice at 0 hrs): 4 | Survival (No. mice alive) (endotoxic mice; Table VI, endotoxin 60 mg/kg + Tβ4 100 μg 3x, 2, 4 and 6 hrs after endotoxin, 120 hrs, 8 mice at 0 hrs): 4 | Survival (No. mice alive) (endotoxic mice; Table VI, endotoxin 60 mg/kg + Tβ4 100 μg 3x, immediately following, 2 and 4 hrs after endotoxin, 24 hrs, 8 mice at 0 hrs): 8 | Survival (No. mice alive) (endotoxic mice; Table VI, endotoxin 60 mg/kg + Tβ4 100 μg 3x, immediately following, 2 and 4 hrs after endotoxin, 48 hrs, 8 mice at 0 hrs): 8 | Survival (No. mice alive) (endotoxic mice; Table VI, endotoxin 60 mg/kg + Tβ4 100 μg 3x, immediately following, 2 and 4 hrs after endotoxin, 72 hrs, 8 mice at 0 hrs): 8 | Survival (No. mice alive) (endotoxic mice; Table VI, endotoxin 60 mg/kg + Tβ4 100 μg 3x, immediately following, 2 and 4 hrs after endotoxin, 96 hrs, 8 mice at 0 hrs): 8 | Survival (No. mice alive) (endotoxic mice; Table VI, endotoxin 60 mg/kg + Tβ4 100 μg 3x, immediately following, 2 and 4 hrs after endotoxin, 120 hrs, 8 mice at 0 hrs): 8 | Survival (No. mice alive) (endotoxic mice; Table VII, endotoxin 60 mg/kg + Tβ4 10 μg 3x i.p., immediately following, 2 and 4 hrs after endotoxin, 24 hrs, 10 mice at 0 hrs): 3 | Survival (No. mice alive) (endotoxic mice; Table VII, endotoxin 60 mg/kg + Tβ4 10 μg 3x i.p., immediately following, 2 and 4 hrs after endotoxin, 48 hrs, 10 mice at 0 hrs): 3 | Survival (No. mice alive) (endotoxic mice; Table VII, endotoxin 60 mg/kg + Tβ4 10 μg 3x i.p., immediately following, 2 and 4 hrs after endotoxin, 72 hrs, 10 mice at 0 hrs): 3 | Survival (No. mice alive) (endotoxic mice; Table VII, endotoxin 60 mg/kg + Tβ4 10 μg 3x i.p., immediately following, 2 and 4 hrs after endotoxin, 96 hrs, 10 mice at 0 hrs): 3 | Survival (No. mice alive) (endotoxic mice; Table VII, endotoxin 60 mg/kg + Tβ4 10 μg 3x i.p., immediately following, 2 and 4 hrs after endotoxin, 5 days, 10 mice at 0 hrs): 3 | Survival (No. mice alive) (endotoxic mice; Table VII, endotoxin 60 mg/kg + Tβ4 10 μg 3x i.p., immediately following, 2 and 4 hrs after endotoxin, 6 days, 10 mice at 0 hrs): 3 | Survival (No. mice alive) (endotoxic mice; Table VII, endotoxin 60 mg/kg + Tβ4 20 μg 3x i.p., immediately following, 2 and 4 hrs after endotoxin, 24 hrs, 10 mice at 0 hrs): 5 | Survival (No. mice alive) (endotoxic mice; Table VII, endotoxin 60 mg/kg + Tβ4 20 μg 3x i.p., immediately following, 2 and 4 hrs after endotoxin, 48 hrs, 10 mice at 0 hrs): 4 | Survival (No. mice alive) (endotoxic mice; Table VII, endotoxin 60 mg/kg + Tβ4 20 μg 3x i.p., immediately following, 2 and 4 hrs after endotoxin, 72 hrs, 10 mice at 0 hrs): 4 | Survival (No. mice alive) (endotoxic mice; Table VII, endotoxin 60 mg/kg + Tβ4 20 μg 3x i.p., immediately following, 2 and 4 hrs after endotoxin, 96 hrs, 10 mice at 0 hrs): 3 | Survival (No. mice alive) (endotoxic mice; Table VII, endotoxin 60 mg/kg + Tβ4 20 μg 3x i.p., immediately following, 2 and 4 hrs after endotoxin, 5 days, 10 mice at 0 hrs): 3 | Survival (No. mice alive) (endotoxic mice; Table VII, endotoxin 60 mg/kg + Tβ4 20 μg 3x i.p., immediately following, 2 and 4 hrs after endotoxin, 6 days, 10 mice at 0 hrs): 3 | Survival (No. mice alive) (endotoxic mice; Table VII, endotoxin 60 mg/kg + Tβ4 50 μg 3x i.p., immediately following, 2 and 4 hrs after endotoxin, 24 hrs, 10 mice at 0 hrs): 9 | Survival (No. mice alive) (endotoxic mice; Table VII, endotoxin 60 mg/kg + Tβ4 50 μg 3x i.p., immediately following, 2 and 4 hrs after endotoxin, 48 hrs, 10 mice at 0 hrs): 7 | Survival (No. mice alive) (endotoxic mice; Table VII, endotoxin 60 mg/kg + Tβ4 50 μg 3x i.p., immediately following, 2 and 4 hrs after endotoxin, 72 hrs, 10 mice at 0 hrs): 7 | Survival (No. mice alive) (endotoxic mice; Table VII, endotoxin 60 mg/kg + Tβ4 50 μg 3x i.p., immediately following, 2 and 4 hrs after endotoxin, 96 hrs, 10 mice at 0 hrs): 7 | Survival (No. mice alive) (endotoxic mice; Table VII, endotoxin 60 mg/kg + Tβ4 50 μg 3x i.p., immediately following, 2 and 4 hrs after endotoxin, 5 days, 10 mice at 0 hrs): 7 | Survival (No. mice alive) (endotoxic mice; Table VII, endotoxin 60 mg/kg + Tβ4 50 μg 3x i.p., immediately following, 2 and 4 hrs after endotoxin, 6 days, 10 mice at 0 hrs): 7 | survival rate (endotoxic mice; Tβ4 administered 3 times post administration of endotoxin): 100% | most effective protective dose (endotoxic mice; administered three times): 100 µg | survival of mice treated with endotoxin (in words) (endotoxic mice; administered three times in doses of 50 μg and 20 μg): partially increased the survival | survival rate (endotoxic mice; lethal endotoxin shock, endotoxin 60 mg/kg i.p., Example 1): ≤ 100% | T × β2 (T × β2 [1]): 1627 ± 123 pg/mL | circulating blood levels of glutathione (in words) (glutathione; [3]): returns circulatory gluthathine levels to normal or about normal | RBC GSH (glutathione; first value column): 1.45 ± 0.11 μmoles/ml cells | RBC GSH (glutathione; second value column): 1.39 ± 0.12 μmoles/ml cells | peroxidation of lipids in blood (malonyldialdehyde), in words (malonyldialdehyde; [3]): returned to normal or about normal | Blood Levels of malonyldialdehyde (malonyldialdehyde; first value column): 19.6 ± 1.7 nNol MDA | Blood Levels of malonyldialdehyde (malonyldialdehyde; second value column): 16.8 ± 1.5 nNol MDA | TNFα (TNFα): 1259 ± 138 pg/mL | Serum IL-1α (IL-1α): 298 ± 20 pg/mL | T × β2 (plasma levels) (T × β2 [2]; 0.5 hr.): 209 ± 9,5 pg/ml | T × β2 (plasma levels) (T × β2 [2]; 1 hr): 607 ± 53 pg/mL | T × β2 (plasma levels) (T × β2 [2]; 2 hr): 196 ± 18 pg/mL | T × β2 (plasma levels) (T × β2 [2]; 3 hr): 112 ± 9 pg/mL
